Laboratory results from publication PMC2891831, “Insight into the Mechanisms of Adenovirus Capsid Disassembly from Studies of Defensin Neutralization” (PLoS Pathogens, 2010).

Legend:
[1] = tested on: HAdV-4 (species E); experiment: Infection assay (hexon staining), HAdV-4; assay type: cell-based, human adenovirus; details: 15 µM HD5 or HNP1, A549 cells, hexon staining at ~48 h, vs. no defensin
Experimental: (§1) To determine whether sensitivity to α-defensins is a general property of HAdVs, serotypes representative of HAdV species A–F were tested for infectivity in the presence of 15 µM HD5 or HNP1 (Figure 1). Wild type HAdVs rather than vectors were used for these studies, and infectivity was assessed by staining for hexon production. […] These studies indicate that sensitivity to α-defensins is species specific. In addition, particular HAdV serotypes are not equally sensitive to all defensins, indicating defensin sequence specificity as well.
(§2) Figure 1 Sensitivity to neutralization by alpha-defensins is AdV species specific. HAdVs were incubated with 15 µM HD5 (A) or HNP1 (B) and assessed for infectivity on A549 cells. Data are the mean of the percent infectivity compared to control cells infected with each virus in the absence of defensin for at least three independent experiments ± SD. The upper limit for quantification of this assay is 200%. […]
(§3) Prior to use in this assay, each virus stock was titrated on A549 cells. […] In parallel, wells were infected with two-fold serial dilutions of each virus to establish a standard curve for quantification with an upper limit of 200%. […] Total well fluorescence above background was quantified with ImageJ software. For each virus, samples were quantified by nonlinear regression against the standard curve using Prism software (GraphPad Software, Inc., La Jolla, CA).

[2] = tested on: HAdV-3; experiment: Infection assay (hexon staining), HAdV-3; assay type: cell-based, human adenovirus; details: 15 µM HNP1, A549 cells, vs. no defensin
Experimental: as §1, §2, §3

[3] = tested on: HAdV-12; experiment: Infection assay (hexon staining), HAdV-12; assay type: cell-based, human adenovirus; details: 15 µM HNP1, A549 cells, vs. no defensin
Experimental: as §1, §2, §3

[4] = tested on: HAdV-14; experiment: Infection assay (hexon staining), HAdV-14; assay type: cell-based, human adenovirus; details: 15 µM HNP1, A549 cells, vs. no defensin
Experimental: as §1, §2, §3

[5] = tested on: HAdV-16; experiment: Infection assay (hexon staining), HAdV-16; assay type: cell-based, human adenovirus; details: 15 µM HNP1, A549 cells, vs. no defensin
Experimental: as §1, §2, §3

[6] = tested on: Serotypes sensitive to HD5; experiment: Infection assay (hexon staining), serotypes sensitive to HD5; assay type: cell-based, human adenovirus; details: 15 µM HNP1, A549 cells, vs. no defensin
Experimental: as §1, §2, §3

[7] = tested on: HAdV-5; details: low micromolar concentrations; ref [13]; cited from earlier work

Question: With “HNP1: human alpha-defensin; synthetic, obtained from Peptides International” as the substance, how does the “sensitivity to neutralization (infectivity)” value [1] read?
Answer: Its value is “resistant”.

Question: What about the inhibition of infection [2] of the same substance?
Answer: Its inhibition of infection is “only modest inhibition”.

Question: What about the inhibition of infection [3] of the same substance?
Answer: Its inhibition of infection is “only modest inhibition”.

Question: And the inhibition of infection [4]?
Answer: The inhibition of infection was “only modest inhibition”.

Question: And the inhibition of infection [5]?
Answer: Its inhibition of infection is “only modest inhibition”.

Question: And the “sensitivity to neutralization (infectivity)” value [6]?
Answer: The value was “generally sensitive”.

Question: And the “inhibition of HAdV-5 infection” value [7]?
Answer: The value was “significantly inhibit HAdV-5 infection at low micromolar concentrations”.
